Structures can show the parent of a compound that is named as a salt.
Experiments:
[1] = system: late components of human complement (C3-C9); assay: Test, Code 035 (C3-C9 inhibitor), lysis of EAC 142; assay type: biochemical; settings: two-fold serial dilution assay; higher well number indicates higher activity
Text: An active inhibitor protects C2 from C1 and C4; (ii) Test, Code 035 (C3-C9 inhibitor) - This test determines the ability of the late components of human complement (C3-C9) to lyse EAC 142 in the presence of appropriate dilutions of the test compound. An active inhibitor protects EAC 142 from lysis by human C3-C9; (iii) Test, Code 036 (C-Shunt inhibitor) - In this test human erythrocytes rendered fragile are lysed in autologous serum via the shunt pathway activated by cobra venom factor in the presence of appropriate dilutions of the test compound. Inhibition of the shunt pathway results in failure of lysis; (iv) Forssman Vasculitis Test - Here, the well known complement dependent lesion, Forssman Vasculitis, is produced in guinea pigs by intradermal injection of rabbit anti-Forssman antiserum. […]

whole complement = assay: Complement Level Reduction Test (in vivo, capillary tube assay of serum); parameters: species or system guinea pig; settings: 200 mg/kg

With `O=S(=O)(O)c1cc(NC(=S)Nc2ccc(Oc3ccc(NC(=S)Nc4cc(S(=O)(=O)O)cc5cc(S(=O)(=O)O)cc(S(=O)(=O)O)c45)c(NC(=S)Nc4cc(S(=O)(=O)O)cc5cc(S(=O)(=O)O)cc(S(=O)(=O)O)c45)c3)cc2NC(=S)Nc2cc(S(=O)(=O)O)cc3cc(S(=O)(=O)O)cc(S(=O)(=O)O)c23)c2c(S(=O)(=O)O)cc(S(=O)(=O)O)cc2c1` [8,8',8",8'"-{Oxybis[4,1,2-phenylbis(2-thioureylene)]}-tetra-1,3,6-naphthalenetrisulfonic acid dodecasodium salt] the “C-Late 035 Wells” value [1] was “+2 Wells”, the “In Vivo Activity (Guinea Pig) % Inhibition” value (whole complement; Intraperitoneal, 30 minutes) was -82% and the “In Vivo Activity (Guinea Pig) % Inhibition” value (whole complement; Intraperitoneal, 60 minutes) was -88%. The “In Vivo Activity (Guinea Pig) % Inhibition” value (whole complement; Intraperitoneal, 120 minutes) was -94%, the “In Vivo Activity (Guinea Pig) % Inhibition” value (whole complement; Intravenous, 2 minutes) was -98% and the “In Vivo Activity (Guinea Pig) % Inhibition” value (whole complement; Intravenous, 30 minutes) was -95%. For the same molecule, the “In Vivo Activity (Guinea Pig) % Inhibition” value (whole complement; Intravenous, 120 minutes) was -91%.
